The text below walks through data of paper PMC9367672, “In vitro differences in toddalolactone metabolism in various species and its effect on cytochrome P450 expression” (Pharmaceutical Biology, 2022).

One data set deals with DLMs. Briefly: Prediction of in vivo hepatic clearance in dogs from DLM kinetics. It counts as in vitro ADME, dog. How it is done: The in vivo hepatic clearances in oxidative metabolism and glucuronidation of toddalolactone were calculated using Equations (4)–(6) (Li et al. [2008]): (4) CLint in vitro=∑i=1nVmax(Mi)/Km(Mi) (5) CLint in vivo=CLint in vitro⋅SF (6) CLH=QH⋅fu⋅CLint in vivo/QH+fu⋅CLint in vivo where SF is the milligrams of microsomal protein per gram of liver multiplied by the grams of liver weight; CLH is hepatic clearance; fu is the unbound fraction in the blood (the value of fu was set to 1 due to the absence of available data for toddalolactone); QH is the blood flow in the liver; and Mi is the metabolite of toddalolacone. The physiological parameters to calculate intrinsic clearance were as follows. The liver weight of dogs, rats and humans were 32, 40 and 25.7 g/kg body weight, respectively; the content of microsomal protein was 77.9, 44.8 and 48.8 mg/g of liver; and the blood flow in the liver was 30.9, 55.2 and 20.7 mL/(min ⋅ kg), respectively (Naritomi et al. [2001]).

Data set [1] in a line: Metabolic stability assessment in rabbit liver microsomes. It is filed as in vitro ADME. As to conditions: pH 7.4, RAMs, toddalolactone 20 μM, 0-90 min. How it is done:
(§1) The CYP reaction system (200 μL) consisted of 0.1 M potassium phosphate buffer (pH 7.4), an NADPH-generating system (1 mM NADPH, 10 mM G-6-P, 1 unit/mL G-6-PD, 4 mM MgCl2), and liver microsomes or recombinant human microsomes (supersomes). Each of the in vitro enzymatic assays using liver microsomes was linear with respect to incubation time and amount of protein. After a pre-incubation at 37 °C for 3 min, the reactions were initiated by adding NADP^+. After incubating for 60 min, the reactions were quenched by adding 200 μL of ice-cold acetonitrile. Samples were centrifuged at 18,000 g for 15 min at 4 °C and 10 μL of supernatant was analyzed using an HPLC system. […]
(§2) In the UGT reaction system, liver microsomes were incubated in 200 μL of the reaction system containing 4 mM UDPGA, 5 mM MgCl2, 20 µg/mL alamethicin, and 50 mM Tris-HCl buffer (pH 7.4). […] After centrifugation at 18,000 g for 15 min, 10 μL of the supernatant was analyzed by HPLC.
(§3) Toddalolactone (20 μM) was incubated with different liver microsomes, including HLMs, DLMs, PLMs, MLMs, RAMs, RLMs or MIMs in oxidative metabolism and glucuronidation reaction systems. […] The mixtures were centrifuged at 18,000 g for 15 min at 4 °C and then 10 μL of the supernatant was analyzed by HPLC. […]
(§4) The peak areas of toddalolactone and its metabolites were detected using a HPLC system (Shimadzu, Kyoto, Japan). […]

For another data set, the target named is CYP3A5 (Homo sapiens, UniProt P20815). Description: Reaction phenotyping with recombinant human CYP3A5. It is filed as in vitro ADME. Set-up: purchased Corning Life Sciences (Corning, MA); host or cells: Saccharomyces cerevisiae. As to conditions: CYP3A5 15 nM, 37 °C, 60 min; P4 main metabolite. The protocol:
The CYP reaction system (200 μL) consisted of 0.1 M potassium phosphate buffer (pH 7.4), an NADPH-generating system (1 mM NADPH, 10 mM G-6-P, 1 unit/mL G-6-PD, 4 mM MgCl2), and liver microsomes or recombinant human microsomes (supersomes). Each of the in vitro enzymatic assays using liver microsomes was linear with respect to incubation time and amount of protein. After a pre-incubation at 37 °C for 3 min, the reactions were initiated by adding NADP^+. After incubating for 60 min, the reactions were quenched by adding 200 μL of ice-cold acetonitrile. Samples were centrifuged at 18,000 g for 15 min at 4 °C and 10 μL of supernatant was analyzed using an HPLC system. NADPH or CYP enzyme sources were not used in the control group to ensure that the metabolic reactions were CYP- and NADPH-dependent. All incubation assays were completed in triplicate. The data are presented as mean ± standard deviation (SD).
Thirteen cDNA-expressed human CYP isoforms (CYP1A1, CYP1A2, CYP2A6, CYP2B6, CYP2C8, CYP3A4, CYP2C19, CYP3A5, CYP1B1, CYP2C9, CYP2D6, CYP2E1 and CYP4F2) were used to identify the isoform(s) involved in the biotransformation of toddalolactone. Toddalolactone (10 μM) was incubated with each recombinant CYP (15 nM) for 60 min at 37 °C and metabolites were identified by HPLC.

Data set [2] can be described thus: Metabolic stability assessment in monkey liver microsomes. It is filed as in vitro ADME. As to conditions: pH 7.4, MLMs, toddalolactone 20 μM, 0-90 min. The protocol:
as §1, §2, §3, §4

The next data set concerns the target T1, CYP1A1 (Homo sapiens, UniProt P04798).
T1 sequence (P04798 1-512): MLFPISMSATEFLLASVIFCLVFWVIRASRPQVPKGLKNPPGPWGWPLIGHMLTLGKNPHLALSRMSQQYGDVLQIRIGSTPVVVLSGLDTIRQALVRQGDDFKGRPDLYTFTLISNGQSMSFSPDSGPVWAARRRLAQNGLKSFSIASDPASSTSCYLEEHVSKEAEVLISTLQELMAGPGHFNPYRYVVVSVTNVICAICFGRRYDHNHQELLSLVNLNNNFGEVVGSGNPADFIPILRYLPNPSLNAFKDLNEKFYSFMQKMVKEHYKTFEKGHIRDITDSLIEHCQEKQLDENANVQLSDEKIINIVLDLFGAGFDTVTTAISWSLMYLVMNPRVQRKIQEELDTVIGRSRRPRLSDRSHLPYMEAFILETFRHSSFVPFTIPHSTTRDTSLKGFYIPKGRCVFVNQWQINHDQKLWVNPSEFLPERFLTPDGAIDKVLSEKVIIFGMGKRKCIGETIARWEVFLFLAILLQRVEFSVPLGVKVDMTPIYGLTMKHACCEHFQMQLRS
Description: Enzyme kinetics of toddalolactone metabolism by recombinant CYP1A1. As to conditions: recombinant CYP1A1 (15 nM); P4 formation.

[3] abbreviates: CYP incubation system, read-out: half-life value (T1/2).
The mark [4] stands for this setting: UGT incubation system, read-out: T1/2 value.

Sequence of CYP3A5 (P20815 whole entry): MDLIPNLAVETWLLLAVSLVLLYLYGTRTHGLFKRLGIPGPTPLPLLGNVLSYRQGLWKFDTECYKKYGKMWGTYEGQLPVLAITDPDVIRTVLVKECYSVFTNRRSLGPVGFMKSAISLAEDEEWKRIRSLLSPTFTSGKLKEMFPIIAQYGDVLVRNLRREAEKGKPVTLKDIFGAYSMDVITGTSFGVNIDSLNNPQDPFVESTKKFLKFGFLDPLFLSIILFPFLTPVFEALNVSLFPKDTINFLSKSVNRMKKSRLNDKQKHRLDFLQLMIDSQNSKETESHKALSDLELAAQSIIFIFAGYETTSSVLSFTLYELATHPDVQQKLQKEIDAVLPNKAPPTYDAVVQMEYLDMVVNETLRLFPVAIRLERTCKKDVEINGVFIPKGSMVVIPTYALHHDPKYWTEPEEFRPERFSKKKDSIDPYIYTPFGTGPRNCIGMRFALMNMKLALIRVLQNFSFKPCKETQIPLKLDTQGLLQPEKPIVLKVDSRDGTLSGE
Description for CYP1A1: The enzyme kinetics of toddalolactone in oxidative metabolism and glucuronidation were determined by incubating liver microsomes (0.2 mg/mL) or CYPs (15 nM) with different concentrations of toddalolactone (1–200 μM). […] The in vitro intrinsic clearance (CLint) was calculated based on the Vmax/Km ratio. Metabolites were quantified using the standard curve for toddalolactone because of the absence of metabolite standards. […]

In the case of `COc1cc2oc(=O)ccc2c(OC)c1C[C@@H](O)C(C)(C)O` [toddalolactone], the “CLH versus hepatic blood flow (QH)” value in the data set with DLMs (DLMs) is given as 5.41%. In the data set on DLMs (dogs), the “clearance class according to predicted CLH” value is “low-clearance (low-clearance drugs (<30% liver blood flow))”. Besides, in the data set with DLMs (dogs, predicted from kinetic parameters of P1–P6, fu set to 1), the “in vivo hepatic clearance (CLH)” value was 0.47 mL/(min/kg body weight). The half-life at 20 μM stood at 6.78 ± 0.517 h in data set [1] (setting [3]), 2.07 ± 0.138 h in data set [1] (setting [4]), 4.08 h in data set [2] (setting [3]) and 1.1 h in data set [2] (setting [4]). Further, the “catalysis of toddalolactone metabolism by rhCYP isoform” value at CYP3A5 is “predominantly catalyzed”. In addition, the K m on CYP1A1 was 60.12 ± 6.67 µM.
